Source: US6262064A, “Octahydrobenzo[f]quinoline-based receptor agonists and antagonists” (priority 1999, dated 2001)
“Also recorded” adds a separate entry of the source. Read-outs that look alike come from different tables or passages of the source.

Assays:
[1] = tested on: male Sprague-Dawley albino rats; assay: Stereotypy evaluation for dopaminergic activity; type: in vivo; conditions: IP; for induction of stereotypy, dopamine agonism: in words
Protocol: Young, adult, male Sprague-Dawley (Charles River) albino rats (200-250 g) served as subjects in this experiment. The rats were injected IP with each dose of (±)-trans-9 or (±)-cis-9. Six rats were tested at each dose. Experimental sessions were 60 minutes in duration. The tests were performed and rated in accordance with the method described in Campbell et al., Psychopharmacology, 88:158 (1986). Each rat was rated with a score of 0 to 3, where 0 represents no sterotypy.

[2] = biological target: alpha1-adrenergic receptor; conditions: for Ki: read-out: α1 receptor binding affinity Ki, Table III, rat forebrain membranes
Protocol: In these assays, the binding reaction was initiated by the addition of varying concentrations of the potential binding composition and a radioligand to an appropriate tissue. The assay was then incubated to allow binding. Binding was then terminated by dilution of the assay with a cold buffer, followed by rapid vacuum filtration onto Whatman GI/C filters that were presoaked in 0.1% polyethylene imine for at least 3 hours. Radioactivity trapped onto the filters was determined and compared to control values in order to ascertain any interactions of test compounds with the binding sites. Binding affinity analyses were performed by Novascreen, Division of the Adheron Corporation, Hanover, Md.
Incubation was conducted in 50 mM TRIS-HCl (pH 7.7) at 25° C. for 60 minutes. […] The final ligand concentration was 0.5 nm.

D4 receptor = biological target: T1, D4 receptor (Homo sapiens, UniProt P21917, DEL265-296); assay: D2:D4 comparative binding assay, D4 (COS-7 cells)
T1 construct: expressed in transfected cells; host or cells: COS-7 cells
T1 sequence (P21917 other isoform, or with tags, fused parts or gaps DEL265-296): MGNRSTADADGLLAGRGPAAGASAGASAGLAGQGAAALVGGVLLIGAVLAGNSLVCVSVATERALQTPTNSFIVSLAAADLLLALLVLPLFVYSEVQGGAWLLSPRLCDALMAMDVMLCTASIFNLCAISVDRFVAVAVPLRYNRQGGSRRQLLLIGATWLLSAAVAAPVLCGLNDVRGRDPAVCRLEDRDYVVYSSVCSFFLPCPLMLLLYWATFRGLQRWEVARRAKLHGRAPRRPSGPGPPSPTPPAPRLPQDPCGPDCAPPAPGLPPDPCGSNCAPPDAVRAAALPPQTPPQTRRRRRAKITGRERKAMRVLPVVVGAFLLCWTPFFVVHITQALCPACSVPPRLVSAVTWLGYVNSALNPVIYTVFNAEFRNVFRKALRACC
Protocol: (§1) To evaluate D2 versus D4 receptor selectivity, comparative binding assays were performed to compare the binding affinities of compositions of this invention for cloned D2 and D4 receptors.
(§2) The D2 assay was prepared from pig anterior pituitary tissue as described in Seeman et al., Molecular Pharmacology, 28:391 (1985). The D4 assay contained membranes prepared from COS-7 cells transfected with a 3.9 kb cDNA-gene fusion construct as described in H. H. M. Vantol, Nature, 350:610 (1991).
(§3) Binding assays were done using the methods described in by Seeman and Vantol. [^3 H]-spiperone (New England Nuclear, Boston, Mass.). The compositions were tested varying concentrations.
(§4) After addition of all components, the samples were incubated for 15 minutes at 37° C., terminated with 50 mM Tris-HCl (pH 7.4 at 20° C.) and collected on glass-fiber filters on a Brandel cell harvester. Radioactivity retained on the filters was counted on a Beckman LS 1701 scintillation counter and data were analyzed by non-linear least squares regression methods.

[3] = biological target: alpha2-adrenergic receptor; assay: Alpha2-adrenergic (non-selective) binding assay ([3H]RX 781094); set-up: species or system rat; conditions: for Ki: Table III, rat cortical membranes, read-out: α2 receptor binding affinity Ki; for α2 receptor binding affinity: in words
D4 (rat) receptor = biological target: T2, D4 (rat) receptor (Rattus norvegicus, UniProt P30729); assay: D2:D3:D4 competition binding assay, D4 ([3H]-spiperone); conditions: in words, Example 26
T2 construct: expressed in transfected cells
T2 sequence (P30729 1-387): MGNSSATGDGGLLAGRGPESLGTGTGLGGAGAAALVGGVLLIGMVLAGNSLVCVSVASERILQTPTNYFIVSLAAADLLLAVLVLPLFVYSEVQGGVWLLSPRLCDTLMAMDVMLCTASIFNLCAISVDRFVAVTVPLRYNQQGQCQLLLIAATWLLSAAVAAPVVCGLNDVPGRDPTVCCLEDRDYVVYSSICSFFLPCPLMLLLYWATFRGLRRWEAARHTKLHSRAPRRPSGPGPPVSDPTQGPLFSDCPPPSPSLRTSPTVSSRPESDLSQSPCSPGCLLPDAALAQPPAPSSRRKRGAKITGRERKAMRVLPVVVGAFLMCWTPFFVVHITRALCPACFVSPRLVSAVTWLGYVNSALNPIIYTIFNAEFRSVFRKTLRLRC
Protocol: (§5) To determine the D2, D3 or D4 receptor selectivity, competition binding assays were performed using membranes from fibroblast cell lines transfected with D2444 (rat), D3 (human) or D4 (rat) receptors. All cell lines were maintained in Dulbecco's modified Eagle's media (DMEM) supplemented with 10 % fetal bovine serum at 37° C. with 5% CO2. Transfected cells were maintained in DMEM containing 300 μg/mL of the antibiotic G418 (Gibco).
(§6) Nuclei were removed by centrifugation for five minutes at 600 g at 4° C., membranes were pelleted for 25 minutes at 50,000 g. Membrane protein was resuspended in homogenization buffer (0.32M sucrose, 0.0025M Tris, pH 6.9 at 20° C.) and incubated at 37° C. for 15 minutes. Membrane protein was pelleted, resuspended in water and stored at -70° C.
(§7) The compositions were tested in varying concentrations between 1 nM and 100 μM. Non-specific binding was determined using 1 μM eticlopride.
(§8) After addition of all components, the samples were incubated for 15 minutes at 37° C., terminated with 50 mM Tris-HCl (pH 7.4 at 4° C.) and collected on glass-fiber filters on a Brandel cell harvester. […] Each composition was evaluated in duplicate experiments.

D2 receptor [4] = biological target: T3, D2 receptor (Sus scrofa, UniProt F1SM69); assay: D2:D4 comparative binding assay, D2 (pig anterior pituitary)
T3 construct: pig anterior pituitary tissue; from tissue; host or cells: pig anterior pituitary
T3 sequence (F1SM69 1-443): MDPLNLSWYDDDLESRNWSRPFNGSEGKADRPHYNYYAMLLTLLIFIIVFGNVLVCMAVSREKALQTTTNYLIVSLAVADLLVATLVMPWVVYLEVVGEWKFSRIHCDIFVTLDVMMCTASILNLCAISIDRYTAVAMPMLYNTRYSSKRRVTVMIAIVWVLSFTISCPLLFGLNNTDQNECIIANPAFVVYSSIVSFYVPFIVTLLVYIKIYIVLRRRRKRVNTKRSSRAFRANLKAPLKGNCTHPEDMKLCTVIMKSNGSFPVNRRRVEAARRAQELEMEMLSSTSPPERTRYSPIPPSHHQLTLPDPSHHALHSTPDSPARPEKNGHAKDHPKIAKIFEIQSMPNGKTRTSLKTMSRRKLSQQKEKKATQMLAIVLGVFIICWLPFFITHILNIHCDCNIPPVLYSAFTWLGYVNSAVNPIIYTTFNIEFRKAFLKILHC
Protocol: as §1, §2, §3, §4

D2 receptor [5] = biological target: T4, D2 receptor (Rattus norvegicus, UniProt P61169); assay: D2 receptor agonist evaluation (membrane binding with and without Gpp(NH)p); conditions: for Ratio of +:- Gpp(NH)p / Ki: Table XV; for D2 agonist/antagonist assessment / effect of GTP on D2 receptor binding: in words
T4 construct: expressed in transfected cells
T4 sequence (P61169 whole entry): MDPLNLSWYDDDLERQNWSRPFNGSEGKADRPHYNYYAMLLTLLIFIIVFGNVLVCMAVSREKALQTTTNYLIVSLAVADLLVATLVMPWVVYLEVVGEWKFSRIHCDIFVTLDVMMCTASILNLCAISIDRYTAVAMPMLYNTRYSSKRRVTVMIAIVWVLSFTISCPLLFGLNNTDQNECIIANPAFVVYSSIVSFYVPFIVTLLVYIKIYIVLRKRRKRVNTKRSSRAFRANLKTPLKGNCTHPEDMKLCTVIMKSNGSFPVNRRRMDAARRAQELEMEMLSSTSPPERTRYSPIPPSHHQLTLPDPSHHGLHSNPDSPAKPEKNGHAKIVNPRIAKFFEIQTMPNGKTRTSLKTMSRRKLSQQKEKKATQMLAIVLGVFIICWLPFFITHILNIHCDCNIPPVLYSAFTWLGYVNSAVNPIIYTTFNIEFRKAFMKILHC
Protocol: as §5
To determine whether or not compounds of this invention were D2 receptor agonists, a membrane binding assay, utilizing the D2 cell line described in Example 26, was performed in the presence and absence of the non-hydrolyzable guanine nucleotide (GTP analogue) Gpp(NH)p.

[6] = tested on: non-habituated male Swiss-Webster mice; assay: Locomotor dose-effect test; type: in vivo; conditions: for decrease in locomotor activity, overall assessment / suppression of locomotor activity: in words; for ED50: Mus musculus, read-out: ED50 (dose which produced 50% maximal depressant activity), IP, horizontal locomotor activity
Protocol: Compounds of this invention were tested to evaluate any depressant effect upon locomotor activity on non-habituated and cocaine-influenced mice. Locomotor activity was measured in photocell cages. A panel of infrared beams was located in the horizontal direction along all 4 sides of each activity cage. Horizontal photocell beam interruptions were recorded by a computer in 10 minute intervals.
Non-habituated male Swiss-Webster served as subjects in this experiment. The mice were injected via the intraperitoneal (IP) route with a methycellulose vehicle or a test compound, comprising trans-9 or cis-9, and placed singly in cages for 20 minutes. After this 20 minute period, mice were injected with saline IP, placed in individual photocell cages and testing for effects upon locomotor activity was begun. Eight mice were tested at each dose level. Experimental sessions were 60 minutes in duration with horizontal locomotor activity recorded in 10 minute intervals. Within each 10 minute interval, the data from all subjects are averaged.
The results of these tests were provided in FIGS. 1a, 1b, 2a and 2b, as well as in Table XI. […] Data were analyzed by a one-way ANOVA computed across doses using a long10 transformation of the horizontal activity counts. Comparisons between vehicle and each dose of the compounds tested were made by a priori contrasts. Doses of the compounds tested, which produced a statistically significant (p<0.05) decrease in locomotor activity relative to vehicle control, are denoted with an asterisk. […] The horizontal activity counts were regressed against the log10 dose of the test compound.

D2 dopamine receptor = biological target: T5, D2 dopamine receptor (Rattus norvegicus, UniProt P61169); assay: Dopamine D2 binding assay ([3H]Sulpiride); conditions: for dopamine receptor binding affinity / selectivity for the D2 over the D1 dopamine receptor: in words
T5 construct: rat striatal membranes; from tissue; host or cells: rat striatum membranes
T5 sequence (P61169 whole entry): as above
Protocol: The final ligand concentration was 0.5 nM.

5HT1 serotonin receptor = assay: Serotonin (5HT1) binding assay
Protocol: In these assays, the binding reaction was initiated by the addition of varying concentrations of the potential binding composition and a radioligand to an appropriate tissue. The assay was then incubated to allow binding. Binding was then terminated by dilution of the assay with a cold buffer, followed by rapid vacuum filtration onto Whatman GI/C filters that were presoaked in 0.1% polyethylene imine for at least 3 hours. Radioactivity trapped onto the filters was determined and compared to control values in order to ascertain any interactions of test compounds with the binding sites.
Incubation was conducted in 50 mM TRIS-HCl (pH 7.4) at 45 minutes for 37° C. The radioligand used was [^3 H]Hydroxytryptamine binoxalate (15-30 Ci/mmol). The final ligand concentration was 3.0 nM.

D1 dopamine receptor = biological target: T6, D1 dopamine receptor (Rattus norvegicus, UniProt P18901); assay: Dopamine D1 binding assay ([3H]SCH 23390); conditions: Table III; rat striatal membranes; read-out: D1 receptor binding affinity Ki
T6 construct: rat striatal membranes; from tissue; host or cells: rat striatum membranes
T6 sequence (P18901 whole entry): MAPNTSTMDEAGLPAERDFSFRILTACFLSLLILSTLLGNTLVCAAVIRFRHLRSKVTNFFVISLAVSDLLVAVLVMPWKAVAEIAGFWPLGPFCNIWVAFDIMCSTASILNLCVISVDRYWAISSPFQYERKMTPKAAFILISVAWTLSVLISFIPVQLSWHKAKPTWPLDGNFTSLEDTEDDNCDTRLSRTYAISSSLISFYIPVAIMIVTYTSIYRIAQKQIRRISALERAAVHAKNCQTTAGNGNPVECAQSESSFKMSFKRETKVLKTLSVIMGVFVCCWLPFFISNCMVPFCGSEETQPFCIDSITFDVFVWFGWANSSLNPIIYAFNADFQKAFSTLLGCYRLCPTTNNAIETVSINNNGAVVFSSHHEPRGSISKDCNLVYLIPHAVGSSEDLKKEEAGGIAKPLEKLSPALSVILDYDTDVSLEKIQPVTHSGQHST
Protocol: The final radioligand concentration was 0.5 nM.

D3 (human) receptor = biological target: T7, D3 (human) receptor (Homo sapiens, UniProt P35462); assay: D2:D3:D4 competition binding assay, D3 ([3H]-spiperone); conditions: in words, Example 26
T7 construct: expressed in transfected cells
T7 sequence (P35462 whole entry): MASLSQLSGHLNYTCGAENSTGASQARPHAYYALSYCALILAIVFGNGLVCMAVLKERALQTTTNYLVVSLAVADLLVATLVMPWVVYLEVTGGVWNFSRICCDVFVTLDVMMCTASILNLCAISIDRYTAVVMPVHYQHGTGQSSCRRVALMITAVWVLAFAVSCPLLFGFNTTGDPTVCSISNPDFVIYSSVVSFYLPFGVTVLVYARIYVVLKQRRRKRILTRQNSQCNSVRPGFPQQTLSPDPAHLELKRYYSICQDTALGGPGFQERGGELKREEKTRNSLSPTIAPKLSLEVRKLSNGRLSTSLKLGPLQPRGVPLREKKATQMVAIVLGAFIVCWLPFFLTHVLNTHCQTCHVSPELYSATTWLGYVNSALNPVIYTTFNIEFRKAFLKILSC
Protocol: as §5, §6, §7, §8

[7] = with Gpp(NH)p, read-out: D2 receptor binding Ki with Gpp(NH)p
[8] = without Gpp(NH)p, read-out: D2 receptor binding Ki without Gpp(NH)p

SMILES	stereotypy score ([1]; 0.0001 mg/kg)	stereotypy score ([1]; 0.001 mg/kg)	stereotypy score ([1]; 0.003 mg/kg)	stereotypy score ([1]; 0.01 mg/kg)	stereotypy score ([1]; 0.03 mg/kg)	stereotypy score ([1]; 0.1 mg/kg)	stereotypy score ([1]; 0.3 mg/kg)	stereotypy score ([1]; 1.0 mg/kg)	stereotypy score ([1]; 3.0 mg/kg)	stereotypy score ([1]; 10.0 mg/kg)	induction of stereotypy, dopamine agonism [1]	Ki [2]	Ki (D4 receptor)	Ki [3]	α2 receptor binding affinity [3]	Ki (D2 receptor [4])	Ratio of +:- Gpp(NH)p (D2 receptor [5])	Ki (D2 receptor [5]; [7])	Ki (D2 receptor [5]; [8])	D2 agonist/antagonist assessment (D2 receptor [5])	also measured
Oc1ccc2c(c1O)CC[C@@H]1[C@H]2CCCN1CCc1ccccc1 (relative stereo) [cis-9]	1.0 ± 0.4	0.7 ± 0.3	0.5 ± 0.2	0.0	0.0	0.0	0.0	0.0	0.0	0.0	did not induce stereotypy and therefore is not a dopamine agonist	190 nM	8.9 nM	27 nM	high binding affinities for the α2 receptor	122 nM	1.84	872 ± 610 nM	473 ± 313 nM	appear to be an antagonist	selectivity for the D4 receptor (D4 receptor; in words, Example 27): selective for the D4 receptor over the D2 or D3 receptors; selectivity for the D4 receptor (D4 (rat) receptor): highly selective for the D4 receptor over the D2 or D3 receptors; effect of GTP on D2 receptor binding (D2 receptor [5]): the addition of GTP did not significantly affect receptor binding affinity; deaths ([6]; IP, 10 mg/kg): Two of eight mice died; decrease in locomotor activity, overall assessment ([6]; IP): much weaker than expected when compared to its dopamine D2 receptor affinity; suppression of locomotor activity ([6]; IP): dose-related suppression of locomotor activity of 10 mg/kg; ED50 [6]: 2.1 mg/kg; Ki (D2 dopamine receptor): 22 nM; dopamine receptor binding affinity (D2 dopamine receptor): good dopamine receptor binding affinities; selectivity for the D2 over the D1 dopamine receptor (D2 dopamine receptor): highly selective for the D2 dopamine receptor over the D1 dopamine receptor
Oc1ccc2c(c1O)CC[C@@H]1[C@@H]2CCCN1CCc1ccccc1 (relative stereo) [trans-9, trans-7,8-dihydroxy-4-phenethyl-1,2,3,4,4a,-5,6,10b-octahydrobenzo[f]quinoline]	6.5 ± 0.4	10.0 ± 0.9	8.2 ± 0.8	7.2 ± 0.6	6.5 ± 0.5	6.0 ± 0.7	1.7 ± 0.5	0.3 ± 0.2	0.2 ± 0.2	0.0	appears to be a strong agonist as it induced stereotypy in rats	80 nM	2.4 nM	22 nM	high binding affinities for the α2 receptor	6.9 nM	8.82	924 ± 1840 nM	105 ± 29 nM	appear to be agonists	α1 receptor binding affinity ([2]; in words): high binding affinities for the α1 receptor; 5HT1 serotonin receptor binding affinity (5HT1 serotonin receptor; in words): high binding affinity for the 5HT1 serotonin receptor; Ki (5HT1 serotonin receptor; read-out: 5-HT1 receptor binding affinity Ki, Table III, rat cortical membranes): 150 nM; Ki (D1 dopamine receptor): 3600 nM; effect of GTP on D2 receptor binding (D2 receptor [5]): D2 receptor binding was enhanced by the addition of GTP; decrease in locomotor activity, overall assessment ([6]; IP): strong agonist in inducing a decrease in locomotor activity in mice; suppression of locomotor activity ([6]; IP): marked suppression of locomotor activity when initially tested at 10 mg/kg; also recorded: Marked suppression was still evident at 0.1 mg/kg; ED50 [6]: 0.038 mg/kg; Ki (D2 dopamine receptor): 2.2 nM; dopamine receptor binding affinity (D2 dopamine receptor): good dopamine receptor binding affinities; selectivity for the D2 over the D1 dopamine receptor (D2 dopamine receptor): highly selective for the D2 dopamine receptor over the D1 dopamine receptor; selectivity for the D3 receptor (D3 (human) receptor): highly selective for the D3 receptor over the D2 or D4 receptors
